In EPA's ToxRefDB 2:

Columns and labels:
primate [1] = settings: Sub-acute repeat dose toxicity, Oral, Gavage/Intubation, dose end: 28 day, group: systemic
rat [2] = settings: Sub-acute repeat dose toxicity, sprague dawley, Oral, Gavage/Intubation, dose end: 14 day, group: systemic
rat [3] = settings: Sub-acute repeat dose toxicity; sprague dawley; Oral; Gavage/Intubation; dose end: 29 day; group: systemic; systemic / in life observation / clinical signs / salivation
rat [4] = settings: Prenatal developmental toxicity study, sprague dawley, Oral, Gavage/Intubation, dose end: 18 GD
rat [5] = settings: Fertility (Segment I), Oral, Gavage/Intubation, dose end: 1 generation, group: parental
rabbit [6] = settings: Prenatal developmental toxicity study, new zealand white, Oral, Gavage/Intubation, dose end: 19 GD
primate [7] = settings: Sub-acute repeat dose toxicity, Oral, Gavage/Intubation, dose end: 10 day, group: systemic
rat [8] = settings: Fertility (Segment I), Oral, Gavage/Intubation, dose end: 1 generation, group: parental; remark: listed apart in the source
rabbit [9] = settings: Sub-acute repeat dose toxicity, Oral, Gavage/Intubation, dose end: 5 day, group: systemic
rat [10] = settings: Chronic toxicity, sprague dawley, Oral, Gavage/Intubation, dose end: 180 day, group: systemic
[11] = systemic / clinical chemistry / [other] / [other] + systemic / in life observation / clinical signs / abnormal feces + systemic / in life …
[12] = systemic / in life observation / body weight / body weight gain + systemic / in life observation / clinical signs / dehydration + systemic…
[13] = systemic / in life observation / clinical signs / salivation
[14] = group: developmental, developmental / developmental malformation / bone / delayed ossification + systemic / in life observation / body weight / fetal weight
[15] = group: maternal, systemic / in life observation / clinical signs / salivation
[16] = group: maternal, systemic / in life observation / clinical signs / salivation + systemic / in life observation / body weight / body weight gain
[17] = systemic / in life observation / clinical signs / fur (altered appearance) + systemic / in life observation / clinical signs / salivation
[18] = group: developmental, systemic / in life observation / body weight / fetal weight
[19] = group: maternal, systemic / in life observation / body weight / body weight + systemic / in life observation / body weight / body weight gain + systemic / in…
[20] = systemic / in life observation / clinical signs / abnormal feces + systemic / in life observation / clinical signs / salivation
[21] = systemic / in life observation / clinical signs / abnormal feces + systemic / in life observation / clinical signs / salivation + systemic…
[22] = systemic / in life observation / clinical signs / abnormal respiratory sounds + systemic / in life observation / clinical signs / fur (…
[23] = systemic / in life observation / body weight / body weight + systemic / in life observation / clinical signs / abnormal feces + systemic / …
[24] = systemic / clinical chemistry / 5' nucleotidase / 5' nucleotidase + systemic / clinical chemistry / alanine aminotransferase (alt/sgpt) / …
[25] = systemic / in life observation / body weight / body weight gain + systemic / in life observation / food consumption / food consumption

In the case of `CC(C)(O)c1coc(S(=O)(=O)NC(=O)Nc2c3c(cc4c2CCC4)CCC3)c1`, the LOAEL (primate [1]; [11]) is reported as greater than 200 mg/kg/day, the NEL (primate [1]; [11]) is reported as 2 mg/kg/day and the NOAEL (primate [1]; [11]) is reported as no less than 200 mg/kg/day. For the same compound, the LEL (primate [1]; systemic / in life observation / clinical signs / abnormal feces) was 50 mg/kg/day, the LOAEL (rat [2]; [12]) was greater than 1000 mg/kg/day and the NOAEL (rat [2]; [12]) was no less than 1000 mg/kg/day. It also gave an LEL (rat [2]; [13]) of 100 mg/kg/day, an NEL (rat [2]; [13]) of less than 100 mg/kg/day and an LEL (rat [3]) of 100 mg/kg/day. For the same compound, the LOAEL (rat [3]) was greater than 500 mg/kg/day, the NEL (rat [3]) was 10 mg/kg/day and the NOAEL (rat [3]) was no less than 500 mg/kg/day. It also gave an LEL (rat [4]; [14]) of 500 mg/kg/day, an LOAEL (rat [4]; [14]) greater than 500 mg/kg/day and an NOAEL (rat [4]; [14]) of no less than 500 mg/kg/day. For the same compound, the LEL (rat [4]; [15]) was 50 mg/kg/day, the NEL (rat [4]; [15]) was less than 50 mg/kg/day and the LOAEL (rat [4]; [16]) was greater than 500 mg/kg/day. It also gave an NOAEL (rat [4]; [16]) of no less than 500 mg/kg/day, an LOAEL (rat [5]; [17]) greater than 500 mg/kg/day and an NOAEL (rat [5]; [17]) of no less than 500 mg/kg/day. The LEL (rat [5]; [13]) was 25 mg/kg/day, the NEL (rat [5]; [13]) was less than 25 mg/kg/day and the LEL (rabbit [6]; [18]) was 250 mg/kg/day. The LOAEL (rabbit [6]; [18]) was greater than 250 mg/kg/day, the NOAEL (rabbit [6]; [18]) was no less than 250 mg/kg/day and the LEL (rabbit [6]; [19]) was 250 mg/kg/day. The LOAEL (rabbit [6]; [19]) was greater than 250 mg/kg/day, the NEL (rabbit [6]; [19]) was 100 mg/kg/day and the NOAEL (rabbit [6]; [19]) was no less than 250 mg/kg/day. It also gave an LEL (primate [7]; [20]) of 10 mg/kg/day, an NEL (primate [7]; [20]) of less than 10 mg/kg/day and an LOAEL (primate [7]; [21]) greater than 200 mg/kg/day. It also gave an NOAEL (primate [7]; [21]) of no less than 200 mg/kg/day, an LOAEL (rat [8]; [22]) greater than 500 mg/kg/day and an NOAEL (rat [8]; [22]) of no less than 500 mg/kg/day. The LEL (rat [8]; [13]) was 25 mg/kg/day, the NEL (rat [8]; [13]) was less than 25 mg/kg/day and the LOAEL (rabbit [9]; [23]) was greater than 500 mg/kg/day. It also gave an NEL (rabbit [9]; [23]) of 50 mg/kg/day, an NOAEL (rabbit [9]; [23]) of no less than 500 mg/kg/day and an LEL (rabbit [9]; systemic / in life observation / food consumption / food consumption) of 250 mg/kg/day. For the same compound, the LOAEL (rat [10]; [24]) was greater than 500 mg/kg/day, the NOAEL (rat [10]; [24]) was no less than 500 mg/kg/day and the LEL (rat [10]; [25]) was 25 mg/kg/day. For the same compound, the NEL (rat [10]; [25]) was less than 25 mg/kg/day.
